Consider 14 compounds from patent US9738644B2, “Chemical compounds, compositions and methods for kinase modulation” (Infinity Pharmaceuticals, Inc., priority 2010, dated 2017).

The target of one experiment is T1, PI3K α (Homo sapiens, UniProt P42336).
T1 construct: purchased Upstate
In words: In vitro PI3K α inhibition assay. In kind it is biochemical. On the procedure: (§1) Class I PI3-Ks can be either purchased (p110α/p85α, p110β/p85α, p110δ/p85α from Upstate, and p110γ from Sigma) or expressed as previously described (Knight et al., 2004). IC50 values are measured using either a standard TLC assay for lipid kinase activity (described below) or a high-throughput membrane capture assay. Kinase reactions are performed by preparing a reaction mixture containing kinase, inhibitor (2% DMSO final concentration), buffer (25 mM HEPES, pH 7.4, 10 mM MgCl2), and freshly sonicated phosphatidylinositol (100 μg/ml). Reactions are initiated by the addition of ATP containing 10 μCi of γ-32P-ATP to a final concentration of 10 or 100 μM and allowed to proceed for 5 minutes at room temperature. For TLC analysis, reactions are then terminated by the addition of 105 μl 1N HCl followed by 160 μl CHCl3:MeOH (1:1). The biphasic mixture is vortexed, briefly centrifuged, and the organic phase is transferred to a new tube using a gel loading pipette tip precoated with CHCl3. This extract is spotted on TLC plates and developed for 3-4 hours in a 65:35 solution of n-propanol:1M acetic acid. The TLC plates are then dried, exposed to a phosphorimager screen (Storm, Amersham), and quantitated. For each compound, kinase activity is measured at 10-12 inhibitor concentrations representing two-fold dilutions from the highest concentration tested (typically, 200 μM).
(§2) Other commercial kits or systems for assaying PI3-K activities are available. The commercially available kits or systems can be used to screen for inhibitors and/or agonists of PI3-Ks including, but not limited to, PI 3-Kinase α, β, δ, and γ. An exemplary system is PI 3-Kinase (human) HTRF™ Assay from Upstate. […] Briefly, the assay is a time resolved FRET assay that indirectly measures PIP3 product formed by the activity of a PI3-K. The kinase reaction is performed in a microtiter plate (e.g., a 384 well microtiter plate). The total reaction volume is approximately 20 μl per well. In the first step, each well receives 2 μl of test compound in 20% dimethylsulphoxide resulting in a 2% DMSO final concentration. Next, approximately 14.5 μl of a kinase/PIP2 mixture (diluted in 1× reaction buffer) is added per well for a final concentration of 0.25-0.3 μg/ml kinase and 10 μM PIP2. The plate is sealed and incubated for 15 minutes at room temperature. To start the reaction, 3.5 μl of ATP (diluted in 1× reaction buffer) is added per well for a final concentration of 10 μM ATP. The plate is sealed and incubated for 1 hour at room temperature. The reaction is stopped by adding 5 μl of Stop Solution per well and then 5 μl of Detection Mix is added per well. The plate is sealed, incubated for 1 hour at room temperature, and then read on an appropriate plate reader. Data is analyzed and IC50s are generated using GraphPad Prism 5.

A further experiment concerns the target T2, PI3K γ (Homo sapiens, UniProt P48736).
T2 construct: purchased Sigma
The experiment in a line: In vitro PI3K γ inhibition assay. It is filed as biochemical. On the procedure: (§3) Class I PI3-Ks can be either purchased (p110α/p85α, p110β/p85α, p110δ/p85α from Upstate, and p110γ from Sigma) or expressed as previously described (Knight et al., 2004). IC50 values are measured using either a standard TLC assay for lipid kinase activity (described below) or a high-throughput membrane capture assay. Kinase reactions are performed by preparing a reaction mixture containing kinase, inhibitor (2% DMSO final concentration), buffer (25 mM HEPES, pH 7.4, 10 mM MgCl2), and freshly sonicated phosphatidylinositol (100 μg/ml). Reactions are initiated by the addition of ATP containing 10 μCi of γ-32P-ATP to a final concentration of 10 or 100 μM and allowed to proceed for 5 minutes at room temperature. For TLC analysis, reactions are then terminated by the addition of 105 μl 1N HCl followed by 160 μl CHCl3:MeOH (1:1). The biphasic mixture is vortexed, briefly centrifuged, and the organic phase is transferred to a new tube using a gel loading pipette tip precoated with CHCl3. This extract is spotted on TLC plates and developed for 3-4 hours in a 65:35 solution of n-propanol:1M acetic acid. The TLC plates are then dried, exposed to a phosphorimager screen (Storm, Amersham), and quantitated. For each compound, kinase activity is measured at 10-12 inhibitor concentrations representing two-fold dilutions from the highest concentration tested (typically, 200 μM). […] Other commercial kits or systems for assaying PI3-K activities are available. The commercially available kits or systems can be used to screen for inhibitors and/or agonists of PI3-Ks including, but not limited to, PI 3-Kinase α, β, δ, and γ. An exemplary system is PI 3-Kinase (human) HTRF™ Assay from Upstate. […] Briefly, the assay is a time resolved FRET assay that indirectly measures PIP3 product formed by the activity of a PI3-K. The kinase reaction is performed in a microtiter plate (e.g., a 384 well microtiter plate). The total reaction volume is approximately 20 μl per well. In the first step, each well receives 2 μl of test compound in 20% dimethylsulphoxide resulting in a 2% DMSO final concentration. Next, approximately 14.5 μl of a kinase/PIP2 mixture (diluted in 1× reaction buffer) is added per well for a final concentration of 0.25-0.3 μg/ml kinase and 10 μM PIP2. The plate is sealed and incubated for 15 minutes at room temperature. To start the reaction, 3.5 μl of ATP (diluted in 1× reaction buffer) is added per well for a final concentration of 10 μM ATP. The plate is sealed and incubated for 1 hour at room temperature. The reaction is stopped by adding 5 μl of Stop Solution per well and then 5 μl of Detection Mix is added per well. The plate is sealed, incubated for 1 hour at room temperature, and then read on an appropriate plate reader. Data is analyzed and IC50s are generated using GraphPad Prism 5.

In the next experiment the target is T3, PI3K β (Homo sapiens, UniProt P42338).
T3 construct: purchased Upstate
The experiment in a line: In vitro PI3K β inhibition assay. It is filed as biochemical. On the procedure:
as §1, §2

Another experiment deals with T4, PI3K δ (Homo sapiens, UniProt O00329).
T4 construct: purchased Upstate
The experiment in a line: In vitro PI3K δ inhibition assay. It is filed as biochemical. On the procedure:
as §3

The next experiment deals with Balb/c splenic B cells. The experiment in a line: B cell activation and proliferation assay (Alamar Blue). It is filed as cell-based. The note with it: Mus musculus. On the procedure:
The ability of one or more subject compounds to inhibit B cell activation and proliferation is determined according to standard procedures known in the art. For example, an in vitro cellular proliferation assay is established that measures the metabolic activity of live cells. The assay is performed in a 96 well microtiter plate using Alamar Blue reduction. Balb/c splenic B cells are purified over a Ficoll-Paque™ PLUS gradient followed by magnetic cell separation using a MACS B cell Isolation Kit (Miletenyi). Cells are plated in 90 μl at 50,000 cells/well in B Cell Media (RPMI+10% FBS+Penn/Strep+50 μM bME+5 mM HEPES). A compound disclosed herein is diluted in B Cell Media and added in a 10 μl volume. Plates are incubated for 30 min at 37° C. and 5% CO2 (0.2% DMSO final concentration). A 50 μl B cell stimulation cocktail is then added containing either 10 μg/ml LPS or 5 μg/ml F(ab′)2 Donkey anti-mouse IgM plus 2 ng/ml recombinant mouse IL4 in B Cell Media. Plates are incubated for 72 hours at 37° C. and 5% CO2. A volume of 15 μL of Alamar Blue reagent is added to each well and plates are incubated for 5 hours at 37° C. and 5% CO2. Alamar Blue fluoresce is read at 560Ex/590Em, and IC50 or EC50 values are calculated using GraphPad Prism 5.
(In general: Alamar Blue is a resazurin reagent that responds to reducing activity.)

The mark [1] stands for this setting: read-out: B cell proliferation EC50.
The mark [2] stands for this setting: read-out: B cell proliferation EC50 (nM).

Where two headings read alike, the source gives them in different places.

T4 sequence (O00329 whole entry): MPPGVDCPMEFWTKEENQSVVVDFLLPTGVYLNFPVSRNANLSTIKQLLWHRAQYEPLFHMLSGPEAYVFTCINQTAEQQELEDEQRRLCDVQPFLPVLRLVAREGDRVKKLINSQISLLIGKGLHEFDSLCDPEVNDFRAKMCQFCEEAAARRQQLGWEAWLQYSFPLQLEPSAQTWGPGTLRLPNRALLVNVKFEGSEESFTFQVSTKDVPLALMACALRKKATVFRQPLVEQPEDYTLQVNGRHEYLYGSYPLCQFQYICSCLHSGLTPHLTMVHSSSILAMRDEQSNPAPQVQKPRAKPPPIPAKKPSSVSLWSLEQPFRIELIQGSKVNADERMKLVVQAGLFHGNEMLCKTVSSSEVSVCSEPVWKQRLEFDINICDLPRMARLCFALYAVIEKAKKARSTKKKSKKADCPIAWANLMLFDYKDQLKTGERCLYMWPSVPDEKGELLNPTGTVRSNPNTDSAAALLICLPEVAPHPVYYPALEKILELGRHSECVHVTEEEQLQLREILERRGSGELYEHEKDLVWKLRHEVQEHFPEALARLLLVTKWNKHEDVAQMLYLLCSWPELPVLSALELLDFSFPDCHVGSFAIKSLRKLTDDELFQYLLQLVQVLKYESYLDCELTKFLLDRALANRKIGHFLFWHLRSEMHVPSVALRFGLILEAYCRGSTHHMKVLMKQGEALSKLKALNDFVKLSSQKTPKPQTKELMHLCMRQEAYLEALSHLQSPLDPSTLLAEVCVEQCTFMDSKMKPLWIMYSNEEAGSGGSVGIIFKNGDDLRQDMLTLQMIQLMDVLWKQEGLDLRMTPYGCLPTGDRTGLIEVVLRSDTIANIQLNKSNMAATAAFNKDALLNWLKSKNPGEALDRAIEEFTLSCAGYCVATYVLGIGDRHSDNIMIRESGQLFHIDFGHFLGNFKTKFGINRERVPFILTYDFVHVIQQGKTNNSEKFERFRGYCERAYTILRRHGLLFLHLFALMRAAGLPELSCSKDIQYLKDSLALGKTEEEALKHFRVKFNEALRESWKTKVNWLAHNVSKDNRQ
T4 sequence (P27986 whole entry partner): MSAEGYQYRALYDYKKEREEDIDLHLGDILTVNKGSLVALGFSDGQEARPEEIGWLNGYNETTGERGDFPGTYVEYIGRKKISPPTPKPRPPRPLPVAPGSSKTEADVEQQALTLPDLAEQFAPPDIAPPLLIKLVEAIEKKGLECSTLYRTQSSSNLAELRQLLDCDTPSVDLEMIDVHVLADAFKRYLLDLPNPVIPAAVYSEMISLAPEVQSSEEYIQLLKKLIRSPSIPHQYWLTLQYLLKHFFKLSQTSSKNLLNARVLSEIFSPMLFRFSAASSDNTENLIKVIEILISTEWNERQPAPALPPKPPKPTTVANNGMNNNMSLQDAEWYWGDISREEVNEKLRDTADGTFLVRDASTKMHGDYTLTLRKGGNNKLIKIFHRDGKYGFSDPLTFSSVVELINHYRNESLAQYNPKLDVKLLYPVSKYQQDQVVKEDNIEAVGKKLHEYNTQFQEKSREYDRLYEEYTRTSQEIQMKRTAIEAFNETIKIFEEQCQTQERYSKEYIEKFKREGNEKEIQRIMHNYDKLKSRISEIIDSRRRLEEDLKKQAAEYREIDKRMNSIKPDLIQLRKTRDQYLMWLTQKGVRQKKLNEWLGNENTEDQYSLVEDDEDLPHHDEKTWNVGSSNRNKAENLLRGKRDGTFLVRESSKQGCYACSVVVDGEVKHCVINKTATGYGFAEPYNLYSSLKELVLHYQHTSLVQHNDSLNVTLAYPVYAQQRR
T2 sequence (P48736 whole entry): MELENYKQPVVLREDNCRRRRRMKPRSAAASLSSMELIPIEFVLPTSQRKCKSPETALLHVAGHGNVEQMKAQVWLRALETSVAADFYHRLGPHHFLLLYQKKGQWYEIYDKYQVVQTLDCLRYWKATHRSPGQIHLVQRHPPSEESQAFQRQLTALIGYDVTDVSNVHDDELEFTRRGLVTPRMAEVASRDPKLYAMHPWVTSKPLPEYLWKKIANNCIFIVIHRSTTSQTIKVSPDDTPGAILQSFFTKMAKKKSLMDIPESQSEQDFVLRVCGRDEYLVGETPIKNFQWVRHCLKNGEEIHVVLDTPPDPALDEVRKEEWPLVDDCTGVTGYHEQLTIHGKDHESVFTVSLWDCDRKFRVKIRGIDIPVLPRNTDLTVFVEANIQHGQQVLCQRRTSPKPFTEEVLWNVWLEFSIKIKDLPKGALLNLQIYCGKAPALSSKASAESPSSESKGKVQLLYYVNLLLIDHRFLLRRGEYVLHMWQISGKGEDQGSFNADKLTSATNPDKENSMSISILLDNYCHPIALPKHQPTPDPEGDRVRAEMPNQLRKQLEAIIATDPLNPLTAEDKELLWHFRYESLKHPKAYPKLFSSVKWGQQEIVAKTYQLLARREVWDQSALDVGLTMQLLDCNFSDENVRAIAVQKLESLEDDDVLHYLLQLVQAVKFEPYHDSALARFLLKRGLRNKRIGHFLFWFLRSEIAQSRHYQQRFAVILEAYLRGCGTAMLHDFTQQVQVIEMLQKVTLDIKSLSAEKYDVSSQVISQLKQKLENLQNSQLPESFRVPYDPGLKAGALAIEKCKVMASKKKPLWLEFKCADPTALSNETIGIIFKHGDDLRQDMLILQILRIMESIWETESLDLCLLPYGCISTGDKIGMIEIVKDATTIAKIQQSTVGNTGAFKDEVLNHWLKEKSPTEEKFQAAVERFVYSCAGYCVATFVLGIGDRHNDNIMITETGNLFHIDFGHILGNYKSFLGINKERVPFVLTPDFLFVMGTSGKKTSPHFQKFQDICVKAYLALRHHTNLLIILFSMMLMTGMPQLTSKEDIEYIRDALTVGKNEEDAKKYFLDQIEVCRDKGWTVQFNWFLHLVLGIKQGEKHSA
T1 sequence (P42336 whole entry): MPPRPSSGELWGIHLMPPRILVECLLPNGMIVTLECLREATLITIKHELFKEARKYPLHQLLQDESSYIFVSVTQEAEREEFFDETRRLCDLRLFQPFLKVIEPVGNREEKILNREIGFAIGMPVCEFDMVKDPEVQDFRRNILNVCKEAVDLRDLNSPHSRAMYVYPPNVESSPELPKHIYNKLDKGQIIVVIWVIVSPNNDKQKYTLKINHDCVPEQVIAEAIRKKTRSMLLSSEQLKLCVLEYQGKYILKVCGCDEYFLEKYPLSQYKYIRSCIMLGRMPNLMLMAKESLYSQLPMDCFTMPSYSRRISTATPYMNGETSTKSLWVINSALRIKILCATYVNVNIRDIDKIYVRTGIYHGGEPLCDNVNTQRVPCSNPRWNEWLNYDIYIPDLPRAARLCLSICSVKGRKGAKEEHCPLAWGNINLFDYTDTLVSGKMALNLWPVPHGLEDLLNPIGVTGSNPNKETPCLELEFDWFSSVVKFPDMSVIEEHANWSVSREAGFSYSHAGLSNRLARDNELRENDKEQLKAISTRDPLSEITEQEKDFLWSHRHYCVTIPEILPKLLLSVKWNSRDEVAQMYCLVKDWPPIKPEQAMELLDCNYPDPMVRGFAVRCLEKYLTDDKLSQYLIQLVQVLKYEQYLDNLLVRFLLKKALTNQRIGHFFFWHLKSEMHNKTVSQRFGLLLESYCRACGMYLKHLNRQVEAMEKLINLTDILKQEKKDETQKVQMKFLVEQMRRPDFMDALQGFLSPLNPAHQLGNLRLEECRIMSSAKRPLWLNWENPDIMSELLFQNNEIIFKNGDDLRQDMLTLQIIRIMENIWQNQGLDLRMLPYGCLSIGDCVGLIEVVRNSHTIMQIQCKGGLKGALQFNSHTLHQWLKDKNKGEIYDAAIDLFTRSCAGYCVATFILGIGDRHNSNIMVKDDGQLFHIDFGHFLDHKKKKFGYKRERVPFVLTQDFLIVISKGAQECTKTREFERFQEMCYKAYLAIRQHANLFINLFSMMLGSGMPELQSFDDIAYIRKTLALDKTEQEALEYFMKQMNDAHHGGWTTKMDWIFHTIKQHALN
T1 sequence (P27986 whole entry partner): as the sequence (P27986 whole entry partner) above
T3 sequence (P42338 whole entry): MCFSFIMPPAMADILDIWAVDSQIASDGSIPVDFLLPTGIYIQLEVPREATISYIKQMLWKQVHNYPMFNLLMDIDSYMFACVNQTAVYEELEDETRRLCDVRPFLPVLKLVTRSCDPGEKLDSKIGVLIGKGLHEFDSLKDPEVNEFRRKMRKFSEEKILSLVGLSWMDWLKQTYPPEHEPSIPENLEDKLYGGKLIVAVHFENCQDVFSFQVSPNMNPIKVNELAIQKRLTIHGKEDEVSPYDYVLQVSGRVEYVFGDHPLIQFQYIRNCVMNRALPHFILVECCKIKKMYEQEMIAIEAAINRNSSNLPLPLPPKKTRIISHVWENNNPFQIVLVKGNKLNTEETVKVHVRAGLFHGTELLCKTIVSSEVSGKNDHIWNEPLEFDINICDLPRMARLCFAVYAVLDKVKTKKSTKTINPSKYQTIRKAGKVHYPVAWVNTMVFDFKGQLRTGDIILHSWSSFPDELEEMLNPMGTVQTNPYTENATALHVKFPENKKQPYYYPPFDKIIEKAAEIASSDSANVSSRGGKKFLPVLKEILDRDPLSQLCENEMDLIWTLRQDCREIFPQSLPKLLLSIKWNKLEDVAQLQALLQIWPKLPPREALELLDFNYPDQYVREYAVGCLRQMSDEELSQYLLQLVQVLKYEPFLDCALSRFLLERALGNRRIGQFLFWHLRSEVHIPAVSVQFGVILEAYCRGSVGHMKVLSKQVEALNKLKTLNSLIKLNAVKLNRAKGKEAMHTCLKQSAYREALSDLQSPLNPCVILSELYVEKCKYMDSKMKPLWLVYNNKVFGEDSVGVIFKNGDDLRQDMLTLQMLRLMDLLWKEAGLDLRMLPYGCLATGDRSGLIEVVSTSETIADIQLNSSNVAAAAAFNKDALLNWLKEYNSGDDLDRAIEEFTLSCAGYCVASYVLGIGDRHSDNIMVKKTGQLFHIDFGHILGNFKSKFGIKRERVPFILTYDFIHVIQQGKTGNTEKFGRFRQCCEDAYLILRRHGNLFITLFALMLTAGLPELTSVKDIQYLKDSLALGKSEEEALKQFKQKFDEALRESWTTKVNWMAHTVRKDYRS
T3 sequence (P27986 whole entry partner): as the sequence (P27986 whole entry partner) above

In general, IC50 refers to the concentration at which inhibition is half-maximal. For `C[C@@H](Nc1ncnc2[nH]cnc12)c1cc2cccc(-c3cccnc3)c2c(=O)n1-c1ccccc1` (stereo in doubt) [Compound 7], the IC50 was less than 10000 nM on PI3K α, less than 100 nM at PI3K γ, less than 10000 nM at PI3K β and less than 100 nM at PI3K δ. The EC50 in the experiment with Balb/c splenic B cells (setting [1]) is less than 100 nM.

Take `C=Cc1cccc2cc(C(C)Nc3ncnc4[nH]cnc34)n(-c3ccccc3)c(=O)c12` (stereo in doubt) [Compound 8, (S)-3-(1-((9H-purin-6-yl)amino)ethyl)-2-phenyl-8-vinylisoquinolin-1(2H)-one]: the IC50 against PI3K α was less than 10000 nM; against PI3K γ, less than 100 nM; against PI3K β, less than 10000 nM; against PI3K δ, less than 100 nM. In addition, in the experiment with Balb/c splenic B cells (setting [1]), the EC50 was less than 100 nM.

For the compound `CCc1cccc2cc(C(C)Nc3ncnc4[nH]cnc34)n(-c3ccccc3)c(=O)c12` (stereo in doubt) [Compound 9, (S)-3-(1-((9H-purin-6-yl)amino)ethyl)-8-ethyl-2-phenylisoquinolin-1(2H)-one], the IC50 against PI3K α is less than 10000 nM; against PI3K γ, less than 100 nM; at PI3K β, less than 10000 nM; against PI3K δ, less than 100 nM. The EC50 in the experiment on Balb/c splenic B cells (setting [1]) was less than 100 nM.

Turning to `C[C@@H](Nc1ncnc2[nH]cnc12)c1cc2cccc(-c3cccnc3)c2c(=O)n1C1CC1` (stereo in doubt) [Compound 13], the IC50 is less than 10000 nM on PI3K α, less than 100 nM at PI3K γ, less than 1000 nM on PI3K β and less than 100 nM at PI3K δ. The EC50 with Balb/c splenic B cells (setting [2]) is less than 100 nM.

With `CC(Nc1ncnc2[nH]cnc12)c1cc2cccc(C#N)c2c(=O)n1-c1ccccc1` (stereo in doubt) [Compound 16, (S)-3-(1-((9H-purin-6-yl)amino)ethyl)-1-oxo-2-phenyl-1,2-dihydroisoquinoline-8-carbonitrile], the IC50 was more than 10000 nM at PI3K α, less than 100 nM at PI3K γ, less than 10000 nM against PI3K β and less than 100 nM on PI3K δ. Further, the EC50 in the experiment on Balb/c splenic B cells (setting [1]) was less than 100 nM.

For the compound `C[C@@H](Nc1ncnc2[nH]cnc12)c1cc2cccc(N(C)C)c2c(=O)n1-c1ccccc1` (stereo in doubt) [Compound 17], the 50% inhibitory concentration (IC50) against PI3K α was more than 10000 nM; against PI3K γ it was less than 10000 nM; on PI3K β it was more than 10000 nM; on PI3K δ, less than 10000 nM. Also, the EC50 in the experiment with Balb/c splenic B cells (setting [1]) was less than 100 nM.

Consider `C[C@@H](Nc1ncnc2[nH]cnc12)c1cc2cccc(-c3cc[nH]n3)c2c(=O)n1-c1ccccc1` (stereo in doubt) [Compound 18], for which the IC50 against PI3K α is more than 10000 nM; against PI3K γ, less than 100 nM; against PI3K β, more than 10000 nM; against PI3K δ it was less than 100 nM. Also, the EC50 in the experiment with Balb/c splenic B cells (setting [1]) was less than 100 nM.

In the case of `C[C@@H](Nc1ncnc2[nH]cnc12)c1cc2cccc(-c3cnn(C)c3)c2c(=O)n1-c1ccccc1` (stereo in doubt) [Compound 19], the IC50 against PI3K α is more than 10000 nM; against PI3K γ it was less than 100 nM; on PI3K β, more than 10000 nM; against PI3K δ, less than 100 nM. In addition, the EC50 with Balb/c splenic B cells (setting [1]) is less than 100 nM.

As for `C[C@@H](Nc1ncnc2[nH]cnc12)c1cc2cccc(-c3cnn(C)c3)c2c(=O)n1C1CC1` (stereo in doubt) [Compound 20], the IC50 at PI3K α was less than 10000 nM; against PI3K γ, less than 1000 nM; on PI3K β, less than 10000 nM; against PI3K δ, less than 100 nM. In addition, in the experiment on Balb/c splenic B cells (setting [1]), the EC50 was less than 100 nM.

As to `C[C@@H](Nc1ncnc2[nH]cnc12)c1cc2cccc(-c3ccncc3)c2c(=O)n1-c1ccccc1` (stereo in doubt) [Compound 21], the IC50 on PI3K α was less than 10000 nM; against PI3K γ, less than 100 nM; at PI3K β it was less than 10000 nM; against PI3K δ it was less than 100 nM. Moreover, the EC50 in the experiment on Balb/c splenic B cells (setting [1]) was less than 100 nM.

Turning to `C[C@@H](Nc1ncnc2[nH]cnc12)c1cc2cccc(-c3cccc(F)c3)c2c(=O)n1-c1ccccc1` (stereo in doubt) [Compound 25], the IC50 is less than 10000 nM at PI3K α, less than 100 nM against PI3K γ, less than 10000 nM against PI3K β and less than 100 nM on PI3K δ. Besides, the EC50 with Balb/c splenic B cells (setting [2]) was less than 100 nM.

Take `C[C@@H](Nc1ncnc2[nH]cnc12)c1cc2cccc(N3CCOCC3)c2c(=O)n1-c1ccccc1` (stereo in doubt) [Compound 39]: the IC50 was more than 10000 nM against PI3K α, less than 1000 nM at PI3K γ, more than 10000 nM against PI3K β and less than 1000 nM against PI3K δ.

As to `C[C@@H](Nc1ncnc2[nH]cnc12)c1cc2cccc(NC3CCOCC3)c2c(=O)n1-c1ccccc1` (stereo in doubt) [Compound 40], the IC50 against PI3K α is more than 10000 nM; against PI3K γ it was less than 10000 nM; against PI3K β, more than 10000 nM; on PI3K δ, less than 1000 nM.

Consider `C[C@@H](Nc1ncnc2[nH]cnc12)c1cc2cccc(-c3cn[nH]c3)c2c(=O)n1C1CC1` [Compound 12], for which the IC50 against PI3K α was less than 1000 nM; on PI3K γ, less than 100 nM; on PI3K β, less than 1000 nM; against PI3K δ, less than 100 nM. Moreover, in the experiment on Balb/c splenic B cells (setting [1]), the EC50 was less than 100 nM.
